According to patent US20250208149A1, “WEE1 COMPOUND FOR TREATING UTERINE SEROUS CARCINOMA” (Recurium IP Holdings, LLC, priority 2022, published 2025):

Experiments:
Assay type in all cases: cell-based
[1] = test system: SKOV3 ovarian cancer cells; assay: ZN-c3 dose response, percent cell density (cell titer glow), CRISPR knockout of PPP2R1A vs non-targeting guide RNA; settings: Homo sapiens, SK-OV-3, 72 h
Protocol: (§1) FIG. 13 depicts the percent cell density of SKOV3 ovarian cancer cells after treatment with a 10-point dose response of ZN-c3 for 72 hours, comparing cells transduced with a non-targeting guide RNA to against those with genetic knockout of PPP2R1A after transduction with a CRISPR guide RNA targeting PPP2R1A. Percent cell density is calculated using cell titer glow analysis. PPP2R1A CRISPR knockout cells have approximately 1.7-fold increase in sensitivity to ZN-c3 (TABLE 7).
(§2) Having observed that siRNA mediated knockdown of PPP2R1A sensitized cancer cell lines to treatment with ZN-c3, it was also of interest to evaluate if CRISPR mediated PPP2R1A knockout produced a similar effect. […] Percent cell density was calculated using cell titer glow analysis.
The ovarian cancer cell line SKOV3 was treated with a CRISPR guide RNA targeting PPP2R1A or nontargeting guide RNA and transfected cells were assessed for sensitivity to ZN-c3 by measurement of reduction in percent cell density (FIG. 13). CRISPR mediated knockout of PPP2R1A was evaluated by comparison of PPP2R1A protein expression via Western blot in conditions treated with nontargeting guide RNA and PPPR12A targeting CRISPR guide RNA with beta actin as a control (FIG. 14).

H1975 lung cancer cells = assay: as above; settings: Homo sapiens, NCI-H1975, 72 h
Protocol: as §1, with “15” for “13”, “H1975 lung” for “SKOV3 ovarian”, “1.9 fold” for “1.7-fold”, “8).” for “7).”
as §2, with “effect. Various cancer cell lines were transfected with a CRISPR guide RNA targeting PPP2R1A or nontargeting guide RNA and the cells were treated with a 10-point dose response of ZN-c3 for 72 hours.” for “effect.”
The lung cancer cell line H1975 was treated with a CRISPR guide RNA targeting PPP2R1A or nontargeting guide RNA and transfected cells were assessed for sensitivity to ZN-c3 by measurement of reduction in percent cell density (FIG. 15). CRISPR mediated knockout of PPP2R1A was evaluated by comparison of PPP2R1A expression in conditions treated with nontargeting guide RNA and PPPR12A targeting CRISPR guide RNA (FIG. 16).

[2] = test system: HEC-59 endometrial cancer cells; assay: Percent inhibition of cell growth, ZN-c3, LB-100 or ZN-c3+LB-100 (cell titer glow); settings: HEC-59 (PPP2R1A wild-type), 72 hours; ZN-c3 400 nM, LB-100 1 μM
Protocol: (§3) FIG. 18 depicts the percent inhibition of cell growth in HEC-59 endometrial cancer cells after treatment with ZN-c3 alone, the PP2A catalytic inhibitor LB-100 alone, or the combination of ZN-c3+LB-100. HEC-59 cell line is PPP2R1A wild-type. […] Percent inhibition is calculated using cell titer glow analysis.
(§4) Various cancer cell lines were treated with ZN-c3 alone, the PP2A catalytic inhibitor LB-100 alone, or the combination of ZN-c3+LB-100. As in Example 1 and Example 2, the treatment period was 72 hours and percent inhibition was calculated using cell titer glow analysis.
The endometrial cancer cell line HEC-59 was assessed for sensitivity to ZN-c3 alone, LB-100 alone, or the combination of ZN-c3+LB-100 (FIG. 18).

[3] = test system: HEC-59 endometrial cancer cells; assay: Percent inhibition of cell growth, ZN-c3, LB-100 or ZN-c3+LB-100 after siCTRL or siPPP2R1A (cell titer glow); settings: 72 hours, ZN-c3 300 nM, LB-100 1 μM
Protocol: as §3, with “20” for “18”, “ZN-c3+LB-100 after siRNA mediated knockdown of PPP2R1A.” for “ZN-c3+LB-100. HEC-59 cell line is PPP2R1A wild-type.”
as §4
The endometrial cancer cell line HEC-59 was assessed for sensitivity to ZN-c3 alone, LB-100 alone, or the combination of ZN-c3+LB-100 following treatment with siCTRL or siPPP2R1A (FIG. 20).

[4] = test system: HEC1B endometrial cancer cells; assay: as above; settings: HEC1B, 72 hours, ZN-c3 200 nM, LB-100 1 μM
Protocol: as §3, with “21” for “18”, “HEC1B” for “HEC-59”, “ZN-c3+LB-100 after siRNA mediated knockdown of PPP2R1A.” for “ZN-c3+LB-100. HEC-59 cell line is PPP2R1A wild-type.”
as §4, with “Following observations that both knockdown and knockout of PPP2R1A could sensitize cancer cells to Zn-C3, the effects of pharmacological inhibition of PPP2R1A with the catalytic inhibitor LB-100 were evaluated. Various” for “Various”
The endometrial cancer cell line HEC1B was also assessed for sensitivity to ZN-c3 alone, LB-100 alone, or the combination of ZN-c3+LB-100 following treatment with siCTRL or siPPP2R1A (FIG. 21).

## C=CCn1c(=O)c2cnc(Nc3ccc(N4CCN(C)CC4)cc3)nc2n1-c1ccc2c(n1)[C@@](O)(CC)CC2 [ZN-c3, (R)-2-allyl-1-(7-ethyl-7-hydroxy-6,7-dihydro-5H-cyclopenta[b]pyridin-2-yl)-6-((4-(4-methylpiperazin-1-yl)phenyl)amino)-1,2-dihydro-3H-pyrazolo[3,4-d]pyrimidin-3-one]
[1]; sgNT (non-targeting guide RNA)
  EC50: 386 nM
[1]; sgPPP2R1A (CRISPR knockout)
  EC50: 224 nM
H1975 lung cancer cells; sgNT (non-targeting guide RNA)
  EC50: 516 nM
H1975 lung cancer cells; sgPPP2R1A (CRISPR knockout)
  EC50: 275 nM
[2]
  percent inhibition of cell growth: approximately 25%
[3]; HEC-59, siCTRL
  percent inhibition of cell growth: approximately 12%
[3]; HEC-59, siPPP2R1A
  percent inhibition in siPPP2R1A treated cells compared to siCTRL treated cells: approximately doubled
[4]; siCTRL
  percent inhibition of cell growth: approximately 30%
[4]; siPPP2R1A
  percent inhibition in siPPP2R1A treated cells compared to siCTRL treated cells: approximately the same
